The results in this text go back to patent US7951815B2, “Substituted 1,4,8-triazaspiro [4,5]decan-2-one compounds” (Gruenenthal GmbH, priority 2004, dated 2011).

As a reminder, the inhibition is the drop in the measured response relative to a control, in per cent.

For test [1], the system named is batrachotoxin (BTX) binding site of the sodium channel. The test can be described thus: Affinity to the batrachotoxin (BTX) binding site of the sodium channel. The conditions noted are these: rat cerebrocortex synaptosomes, test concentration not given.
In test [2] the target is T1, 5-HT transporter (Rattus norvegicus, UniProt P31652).
T1 construct: synaptosomes of rat brain areas are freshly isolated; from tissue; host or cells: rat brain synaptosomes (P2 fraction) from marrow and pons
T1 sequence (P31652 whole entry): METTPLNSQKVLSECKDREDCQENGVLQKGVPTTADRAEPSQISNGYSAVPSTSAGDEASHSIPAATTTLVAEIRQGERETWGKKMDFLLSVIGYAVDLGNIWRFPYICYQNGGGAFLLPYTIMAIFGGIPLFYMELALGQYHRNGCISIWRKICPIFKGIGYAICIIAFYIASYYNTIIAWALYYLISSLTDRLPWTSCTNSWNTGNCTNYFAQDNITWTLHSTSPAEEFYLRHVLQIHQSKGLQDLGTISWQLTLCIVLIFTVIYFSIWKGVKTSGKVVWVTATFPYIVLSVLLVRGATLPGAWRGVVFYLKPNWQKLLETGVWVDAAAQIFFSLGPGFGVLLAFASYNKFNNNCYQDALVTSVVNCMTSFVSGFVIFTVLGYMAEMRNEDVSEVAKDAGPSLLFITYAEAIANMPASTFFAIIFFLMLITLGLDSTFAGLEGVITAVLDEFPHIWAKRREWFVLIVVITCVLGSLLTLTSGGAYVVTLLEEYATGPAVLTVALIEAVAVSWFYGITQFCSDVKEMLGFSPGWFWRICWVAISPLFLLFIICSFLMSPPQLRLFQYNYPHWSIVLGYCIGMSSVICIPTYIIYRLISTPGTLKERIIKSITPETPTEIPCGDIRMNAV
The test can be described thus: Inhibition of 5-HT uptake in rat brain synaptosomes. Type of test: biochemical. The conditions noted are these: Table III, rat, 1 μM; for inhibition at 1 µM: read-out: Uptake 5-HT, % inhibition.

Consider `Cl.O=C(c1ccc(Cl)cc1)N1CCC2(CC1)N[C@@H](Cc1ccccc1)C(=O)N2Cc1ccc(F)cc1` (racemic) [Example 28, 3-(S,R)-benzyl-8-(4-chlorobenzoyl)-1-(4-fluorobenzyl)-1,4,8-triazaspiro[4,5]decan-2-one hydrochloride], for which, in test [1] (Table II), the BTX inhibition was 47.
Compound `Cl.O=C(C(c1ccccc1)c1ccccc1)N1CCC2(CC1)N[C@@H](Cc1ccccc1)C(=O)N2Cc1ccccc1` [Example 56, 1,3-(S)-dibenzyl-8-diphenylacetyl-1,4,8-triazaspiro[4,5]decan-2-one hydrochloride] had a BTX inhibition in test [1] (Table II) of 67.
On the same count and under the same terms, under `COc1cccc(C(=O)N2CCC3(CC2)N[C@@H](Cc2ccccc2)C(=O)N3Cc2ccccc2)c1.Cl` [Example 61, 1,3-(S)-dibenzyl-8-(3-methoxybenzoyl)-1,4,8-triazaspiro[4,5]decan-2-one hydrochloride] stands 41.
As for `O=C(c1ccc(-c2ccccc2)cc1)N1CCC2(CC1)NCC(=O)N2Cc1ccccc1` [Example 72, 1-Benzyl-8-(biphenyl-4-carbonyl)-1,4,8-triazaspiro[4,5]decan-2-one], in test [1] (Table III), the BTX inhibition was determined as 39.
As to `Cc1onc(-c2c(F)cccc2Cl)c1C(=O)N1CCC2(CC1)NC(C(C)C)C(=O)N2CCOc1ccccc1` (centres unmarked) [Example 131, 8-[3-(2-Chloro-6-fluorophenyl)-5-methylisoxazole-4-carbonyl]-3-isopropyl-1-(2-phenoxyethyl)-1,4,8-triazaspiro[4,5]decan-2-one], the BTX inhibition in test [1] (Table III) is on record as 37.
`Cc1cccc(C(=O)N2CCC3(CC2)NC(CC(C)C)C(=O)N3Cc2ccccc2F)c1` (centres unmarked) [Example 132, 1-(2-Fluorobenzyl)-3-isobutyl-8-(3-methylbenzoyl)-1,4,8-triazaspiro[4,5]decan-2-one] showed a BTX inhibition in test [1] (Table III) of 54.
With `CCCCC(CC)C(=O)N1CCC2(CC1)NCC(=O)N2CCOc1ccccc1` (centres unmarked) [Example 133, 8-(2-Ethylhexanoyl)-1-(2-phenoxyethyl)-1,4,8-triazaspiro[4,5]decan-2-one], the BTX inhibition in test [1] (Table III) worked out at 35.
For `CCOc1ccc(C(=O)N2CCC3(CC2)NC(Cc2ccccc2)C(=O)N3C)cc1` (centres unmarked) [Example 135, 3-Benzyl-8-(4-ethoxybenzoyl)-1-methyl-1,4,8-triazaspiro[4,5]decan-2-one], in test [1] (Table III), the BTX inhibition was determined as 31.
`CSCCC1NC2(CCN(C(=O)c3cccc(N(C)C)c3)CC2)N(Cc2cc(C)cc(C)c2)C1=O` (centres unmarked) [Example 137, 8-(3-Dimethylaminobenzoyl)-1-(3,5-dimethylbenzyl)-3-(2-methylsulfanylethyl)-1,4,8-triazaspiro[4,5]decan-2-one]: the BTX inhibition in test [1] (Table III) is 59.
Turning to `O=C(c1ccc(F)c(F)c1)N1CCC2(CC1)NCC(=O)N2CCOc1ccccc1` [Example 142, 8-(3,4-Difluorobenzoyl)-1-(2-phenoxyethyl)-1,4,8-triazaspiro[4,5]decan-2-one], the BTX inhibition in test [1] (Table III) was found to be 32.
For `Cc1cc(C(=O)N2CCC3(CC2)NC(Cc2ccccc2)C(=O)N3C)no1` (centres unmarked) [Example 239, 3-Benzyl-1-methyl-8-(5-methylisoxazole-3-carbonyl)-1,4,8-triazaspiro[4,5]decan-2-one], the inhibition at 1 µM in test [2] was determined as 36%.
Turning to `CCCCN1C(=O)C(Cc2ccccc2)NC12CCN(C(=O)c1snnc1C)CC2` (centres unmarked) [Example 243, 3-Benzyl-1-butyl-8-(4-methyl[1,2,3]thiadiazole-5-carbonyl)-1,4,8-triazaspiro[4,5]decan-2-one], in test [2], the inhibition at 1 µM turned out to be 46%.
Still for that read-out and setting: under `C#CCN1C(=O)C(Cc2ccccc2)NC12CCN(C(=O)c1snnc1C)CC2` (centres unmarked) [Example 244, 3-Benzyl-8-(4-methyl[1,2,3]thiadiazole-5-carbonyl)-1-prop-2-ynyl-1,4,8-triazaspiro[4,5]decan-2-one] stands 51%; under `C#CCN1C(=O)C(Cc2ccccc2)NC12CCN(C(=O)c1cc(C)on1)CC2` (centres unmarked) [Example 251, 3-Benzyl-8-(5-methylisoxazole-3-carbonyl)-1-prop-2-ynyl-1,4,8-triazaspiro[4,5]decan-2-one], 50%; under `COC(=O)c1ccc(CN2C(=O)CNC23CCN(C(=O)c2cccnc2Cl)CC3)cc1` [Example 252, Methyl 4-[8-(2-chloropyridin-3-carbonyl)-2-oxo-1,4,8-triazaspiro[4,5]dec-1-ylmethyl]benzoate], 73%.
On the same count and under the same terms, under `Cc1cc(C(=O)N2CCC3(CC2)NCC(=O)N3Cc2ccccc2F)n(C(C)(C)C)n1` [Example 253, 8-(2-tert-Butyl-5-methyl-2H-pyrazole-3-carbonyl)-1-(2-fluorobenzyl)-1,4,8-triazaspiro[4,5]decan-2-one] stands 82%.
In the case of `COC(=O)c1ccc(CN2C(=O)CNC23CCN(C(=O)c2cccnc2SC)CC3)cc1` [Example 254, Methyl 4-[8-(2-methylsulfanylpyridin-3-carbonyl)-2-oxo-1,4,8-triazaspiro[4,5]dec-1-ylmethyl]benzoate], in test [2], the inhibition at 1 µM was 34%.
Turning to `CC(=O)Nc1ccc(C(=O)N2CCC3(CC2)NC(CC(C)C)C(=O)N3CCCCOC(C)=O)cc1` (centres unmarked) [Example 255, Butyl 4-[8-(4-acetylaminobenzoyl)-3-isobutyl-2-oxo-1,4,8-triazaspiro[4,5]dec-1-yl]acetate], the “Uptake 5-HT, rat, 1 μM, % inhibition” value in test [2] is recorded as 44%.
The same measure, in the same setting: under `C=CCN1C(=O)C(CCSC)NC12CCN(C(=O)c1ccc(S(N)(=O)=O)cc1)CC2` (centres unmarked) [Example 259, 4-[1-Allyl-3-(2-methylsulfanylethyl)-2-oxo-1,4,8-triazaspiro[4,5]decan-8-carbonyl]benzolsulfonamide] stands 50%.
With `C=CCN1C(=O)C(CCSC)NC12CCN(C(=O)C(=O)OCC)CC2` (centres unmarked) [Example 261, Ethyl 2-[1-allyl-3-(2-methylsulfanylethyl)-2-oxo-1,4,8-triazaspiro[4,5]dec-8-yl]-2-oxo-acetate], the inhibition at 1 µM in test [2] was determined as 39%.
Regarding `CCOC(=O)CN1C(=O)C(CCSC)NC12CCN(C(=O)CC)CC2` (centres unmarked) [Example 263, Ethyl [3-(2-methylsulfanylethyl)-2-oxo-8-propionyl-1,4,8-triazaspiro[4,5]dec-1-yl]acetate], the inhibition at 1 µM in test [2] is 50%.
As for `COC(=O)c1ccc(CN2C(=O)CNC23CCN(C(=O)C2CCCC2)CC3)cc1` [Example 269, Methyl 4-(8-cyclopentanecarbonyl-2-oxo-1,4,8-triazaspiro[4,5]dec-1-ylmethyl)benzoate], in test [2], the inhibition at 1 µM worked out at 40%.
Turning to `COc1cc(C(=O)N2CCC3(CC2)NCC(=O)N3Cc2cccc(C#N)c2)cc(OC)c1OC` [Example 277, 3-[2-Oxo-8-(3,4,5-trimethoxybenzoyl)-1,4,8-triazaspiro[4,5]dec-1-ylmethyl]benzonitrile], the inhibition at 1 µM in test [2] is 43%.
`COCC(=O)N1CCC2(CC1)NC(C(C)C)C(=O)N2Cc1cccc(C#N)c1` (centres unmarked) [Example 282, 3-[3-Isopropyl-8-(2-methoxyacetyl)-2-oxo-1,4,8-triazaspiro[4,5]dec-1-ylmethyl]benzonitrile]: the inhibition at 1 µM in test [2] amounted to 49%.
As for `COC(=O)c1ccc(CN2C(=O)CNC23CCN(C(=O)Cc2ccccc2)CC3)cc1` [Example 283, Methyl 4-(2-oxo-8-phenylacetyl-1,4,8-triazaspiro[4,5]dec-1-ylmethyl)benzoate], the inhibition at 1 µM in test [2] turned out to be 51%.
As for `CC(=O)OC(C(=O)N1CCC2(CC1)NCC(=O)N2Cc1cccc(C#N)c1)c1ccccc1` (centres unmarked) [Example 284, Ethyl 2-[1-(3-cyanobenzyl)-2-oxo-1,4,8-triazaspiro[4,5]dec-8-yl]-2-oxo-1-phenylacetate], the “Uptake 5-HT, rat, 1 μM, % inhibition” value in test [2] is recorded as 51%.
Consider `COC(=O)c1ccc(CN2C(=O)CNC23CCN(C(=O)C2CCCCC2)CC3)cc1` [Example 286, Methyl 4-(8-cyclohexanecarbonyl-2-oxo-1,4,8-triazaspiro[4,5]dec-1-ylmethyl)benzoate], for which the inhibition at 1 µM in test [2] amounted to 47%.
With `N#Cc1cccc(CN2C(=O)CNC23CCN(C(=O)c2ccccc2C(F)(F)F)CC3)c1` [Example 308, 3-[2-Oxo-8-(2-trifluoromethylbenzoyl)-1,4,8-triazaspiro[4,5]dec-1-ylmethyl]benzonitrile], in test [2], the inhibition at 1 µM is 59%.
`CCOc1ccccc1C(=O)N1CCC2(CC1)NC(CC(C)C)C(=O)N2CCCCOC(C)=O` (centres unmarked) [Example 310, Butyl 4-[8-(2-ethoxybenzoyl)-3-isobutyl-2-oxo-1,4,8-triazaspiro[4,5]dec-1-yl]acetate]: in test [2], the “Uptake 5-HT, rat, 1 μM, % inhibition” value is given as 48%.
Regarding `COc1cccc(C(=O)N2CCC3(CC2)NCC(=O)N3Cc2ccccc2F)c1` [Example 311, 1-(2-Fluorobenzyl)-8-(3-methoxybenzoyl)-1,4,8-triazaspiro[4,5]decan-2-one], the inhibition at 1 µM in test [2] was found to be 49%.
Same read-out and setting: under `Cn1nc(C(C)(C)C)cc1C(=O)N1CCC2(CC1)NCC(=O)N2Cc1ccccc1F` [Example 313, 8-(5-tert-Butyl-2-methyl-2H-pyrazole-3-carbonyl)-1-(2-fluorobenzyl)-1,4,8-triazaspiro[4,5]decan-2-one] stands 60%.
With `CCOC(=O)CN1C(=O)C(Cc2ccccc2)NC12CCN(C(=O)c1ccccc1F)CC2` (centres unmarked) [Example 315, Ethyl [3-benzyl-8-(2-fluorobenzoyl)-2-oxo-1,4,8-triazaspiro[4,5]dec-1-yl]acetate], in test [2], the inhibition at 1 µM is 61%.
Still for that read-out and setting: under `CCOC(=O)CN1C(=O)C(Cc2ccccc2)NC12CCN(C(=O)C1CCC1)CC2` (centres unmarked) [Example 319, Ethyl (3-benzyl-8-cyclobutanecarbonyl-2-oxo-1,4,8-triazaspiro[4,5]dec-1-yl)acetate] stands 70%; under `COc1ccc(CC(=O)N2CCC3(CC2)NCC(=O)N3Cc2ccccc2F)cc1` [Example 320, 1-(2-Fluorobenzyl)-8-[2-(4-methoxyphenyl)acetyl]-1,4,8-triazaspiro[4,5]decan-2-one], 38%.
Consider `C=CCN1C(=O)C(C(C)C)NC12CCN(C(=O)c1ccccc1C)CC2` (centres unmarked) [Example 325, 1-Allyl-3-isopropyl-8-(2-methylbenzoyl)-1,4,8-triazaspiro[4,5]decan-2-one], for which, in test [2], the inhibition at 1 µM came out at 32%.
